Results on 8 compounds are retold here after PubChem BioAssay (NCI).

Some test systems named below: UACC-257 melanoma; OVCAR-8 ovarian; NCI-H522 lung; MOLT-4 leukemia; SR leukemia; MDA-MB-231 breast; SW-620 colon; HL-60(TB) leukemia; NCI-H226 lung; SF-295 CNS; HCC-2998 colon; ACHN renal; A498 renal; CCRF-CEM leukemia; IGROV1 ovarian; MDA-N.
Common to all, as to assay: NCI tumour cell line growth inhibition, 48 h

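Compound exposure: 48 hours, 5 concentrations, 96-well plates. TGI is the concentration that stops growth completely.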

With `CC(=O)Nc1c(S(=O)(=O)c2ccccc2)c(C)c(C)n1CCN(C)C`, the TGI in the experiment on UACC-257 melanoma, with OVCAR-8 ovarian, in the experiment with NCI-H522 lung, with MOLT-4 leukemia, in the experiment with SR leukemia and in the experiment on MDA-MB-231 breast was greater than 100 µM in each case. Besides, the TGI in the experiment with SW-620 colon, in the experiment with HL-60(TB) leukemia, in the experiment with NCI-H226 lung, in the experiment on SF-295 CNS, in the experiment with HCC-2998 colon and in the experiment with ACHN renal was greater than 100 µM in each case. Further, the TGI in the experiment with A498 renal, with CCRF-CEM leukemia, in the experiment on IGROV1 ovarian and in the experiment on MDA-N was greater than 100 µM each time.

On to `O=P12N(CCN1c1ccccc1)CCN2c1ccccc1`, for which the TGI in the experiment with UACC-257 melanoma, in the experiment on OVCAR-8 ovarian, with NCI-H522 lung, in the experiment on MOLT-4 leukemia, in the experiment on SR leukemia and with MDA-MB-231 breast was greater than 100 µM throughout. Further, the TGI in the experiment on SW-620 colon, with HL-60(TB) leukemia, in the experiment on NCI-H226 lung, with SF-295 CNS, in the experiment on HCC-2998 colon and in the experiment on ACHN renal was greater than 100 µM in each case. Also, the TGI in the experiment on A498 renal, in the experiment with CCRF-CEM leukemia, in the experiment with IGROV1 ovarian and in the experiment on MDA-N was greater than 100 µM each time.

Consider `O=C1NC(=O)C(F)(n2cc(F)c(=O)[nH]c2=O)C(O)N1` (stereo not drawn), for which the TGI in the experiment with UACC-257 melanoma, in the experiment with OVCAR-8 ovarian, with NCI-H522 lung, with MOLT-4 leukemia, in the experiment with SR leukemia and with MDA-MB-231 breast was greater than 10 µM each time. Also, the TGI in the experiment with SW-620 colon, in the experiment on HL-60(TB) leukemia, in the experiment with NCI-H226 lung, in the experiment with SF-295 CNS, in the experiment on HCC-2998 colon and in the experiment on ACHN renal was greater than 10 µM each time. In addition, the TGI with A498 renal, in the experiment with CCRF-CEM leukemia, in the experiment with IGROV1 ovarian and with MDA-N was greater than 10 µM each time.

Regarding `c1ccc2c(Cc3[nH]c4ccccc4c3Cc3c[nH]c4ccccc34)c[nH]c2c1`, the TGI in the experiment with UACC-257 melanoma is 8.47 µM; in the experiment with OVCAR-8 ovarian it was 35.6 µM; with NCI-H522 lung, 3.76 µM; with MOLT-4 leukemia, 12 µM; with SR leukemia, 15.1 µM; in the experiment on MDA-MB-231 breast, 5.29 µM. Moreover, the TGI is 5.59 µM in the experiment with SW-620 colon; 4.58 µM with HL-60(TB) leukemia; 24.5 µM with NCI-H226 lung; 16.3 µM in the experiment on SF-295 CNS; 3.26 µM in the experiment on HCC-2998 colon; greater than 36 µM in the experiment with ACHN renal. Besides, the TGI amounted to 5.73 µM in the experiment on A498 renal, 8.98 µM in the experiment on CCRF-CEM leukemia, 13.7 µM in the experiment on IGROV1 ovarian and 5.47 µM in the experiment with MDA-N.

`CC(NC(=O)/C(=C/c1ccccc1)NC(=O)c1ccccc1)C(=O)O` (stereo not drawn): the TGI in the experiment with UACC-257 melanoma, in the experiment with OVCAR-8 ovarian, in the experiment with NCI-H522 lung, in the experiment on MOLT-4 leukemia, in the experiment with SR leukemia and with MDA-MB-231 breast was greater than 100 µM in each case. For the same compound, the TGI is greater than 100 µM with SW-620 colon; greater than 100 µM in the experiment on HL-60(TB) leukemia; 99.5 µM in the experiment on NCI-H226 lung; greater than 100 µM with SF-295 CNS; greater than 100 µM with HCC-2998 colon; greater than 100 µM in the experiment with ACHN renal. Moreover, the TGI in the experiment on A498 renal, in the experiment with CCRF-CEM leukemia, with IGROV1 ovarian and in the experiment with MDA-N was greater than 100 µM throughout.

For `CC(C)C1C(=O)N(c2c(F)c(F)c(F)c(F)c2F)C(=S)N1CCS(=O)c1ccccc1` (stereo not drawn), the TGI was 35.5 µM in the experiment with UACC-257 melanoma; 32.6 µM in the experiment on OVCAR-8 ovarian; 12.6 µM in the experiment on NCI-H522 lung; 49.7 µM in the experiment on MOLT-4 leukemia; 16.2 µM in the experiment on SR leukemia; 32 µM with MDA-MB-231 breast. In addition, the TGI came to 35.5 µM with SW-620 colon; 19.2 µM with HL-60(TB) leukemia; 38.5 µM in the experiment with NCI-H226 lung; 33.1 µM with SF-295 CNS; 21.8 µM in the experiment on HCC-2998 colon; 37.1 µM with ACHN renal. The TGI in the experiment on A498 renal is 30.6 µM; in the experiment on CCRF-CEM leukemia, 42.3 µM; with IGROV1 ovarian it was 34.4 µM; with MDA-N it was 32.4 µM.

For the compound `O=C1CSC(/C=C/c2ccccc2)N1c1nc2cc3sc(N4C(=O)CSC4/C=C/c4ccccc4)nc3cc2s1` (stereo not drawn), the TGI in the experiment with UACC-257 melanoma is greater than 100 µM; in the experiment with OVCAR-8 ovarian it was greater than 100 µM; with NCI-H522 lung, greater than 100 µM; with MOLT-4 leukemia, greater than 100 µM; in the experiment on SR leukemia, greater than 83.7 µM; in the experiment on MDA-MB-231 breast, greater than 100 µM. Also, the TGI is greater than 100 µM with SW-620 colon; greater than 100 µM in the experiment on HL-60(TB) leukemia; greater than 95.5 µM in the experiment with NCI-H226 lung; greater than 100 µM with SF-295 CNS; greater than 100 µM in the experiment on HCC-2998 colon; greater than 100 µM in the experiment with ACHN renal. The TGI with A498 renal is greater than 100 µM; with CCRF-CEM leukemia, greater than 63.5 µM; in the experiment on IGROV1 ovarian, greater than 100 µM; in the experiment with MDA-N, greater than 100 µM.

Turning to `NC(Cc1ccc(OCc2ccccc2)cn1)C(=O)O` (stereo not drawn), the TGI in the experiment with UACC-257 melanoma, with OVCAR-8 ovarian, with NCI-H522 lung, in the experiment with MOLT-4 leukemia, in the experiment on SR leukemia and in the experiment with MDA-MB-231 breast was greater than 100 µM in each case. Also, the TGI with SW-620 colon, in the experiment on HL-60(TB) leukemia, in the experiment with NCI-H226 lung, with SF-295 CNS, in the experiment with HCC-2998 colon and in the experiment on ACHN renal was greater than 100 µM throughout. Moreover, the TGI with A498 renal, with CCRF-CEM leukemia, in the experiment with IGROV1 ovarian and with MDA-N was greater than 100 µM throughout.
